Reference: patent US8378100B2, “Phosphonate derivatives as autotaxin inhibitors” (University of Virginia Patent Foundation, priority 2008, dated 2013)

Target: recombinant human ATX (Homo sapiens, UniProt Q13822)
Assay: Choline detection assay for ATX
Type: biochemical
Conditions: for ATX activity (%) 1 μM: 1 μM test compound; for ATX activity (%) 1 μM / ATX activity (%) 10 Mm / ATX activity (%) 100 μM / ATX activity (%) 10 μM: activity without test compound = 100%; for ATX activity (%) 10 Mm: 10 μM test compound as printed; for ATX activity (%) 100 μM: 100 μM test compound; for ATX inhibition (in words): compounds synthesized from D-tyrosine; for ATX activity (%) 10 μM: 10 μM test compound
Protocol: The phosphonate derivatives were tested in choline detection assay for ATX inhibition. The ATX activity assay was conducted in 0.1 ml, buffer: (in mM: Tris-HCl 100, pH9, NaCl 150, MgCl2 5, CoSO4 0.03, 0.05% Triton X-100), 1 mM 18:1 LPC, using recombinant human ATX with or without test compounds; incubation was for 16 hours at 37° C. The released choline was detected as follows: Samples were mixed with 0.15 ml of 50 mM TrisHCl containing 2.7 mM TOOS(N-ethyl-N-2-hydroxy-3-sulfopropyl)-m-toluidine, 2.7 mM 4-AAP (4-aminoantipyrine), 47.7 U/ml horseradish peroxidase, 18 U/ml choline oxidase, and 5 mM MgCl2. After 30 min incubation at 37° C., light absorbance (550 nm) was determined, and the amount of choline release was calculated from a standard curve.
The ATX activity was measured in the presence of the test compounds under different concentrations (100 μM, 10 μM and 1 μM). The ATX activity without TEST compounds was used as the standard (100% activity). Some β-hydroxy phosphonate derivatives inhibited ATX activity at only the highest concentration tested. […] These two compounds were synthesized from protected L-tyrosine and they are diastereomers. The less polar isomer, f17, (also known as VPC8a202) was able to inhibit 73% of ATX activity at 1 μM.

For `CCCCCCCCCCCCCCCC(=O)N[C@H](Cc1ccc(OCc2ccccc2)cc1)C(O)CP(=O)(O)O` (single isomer, unassigned) [f5], the “ATX activity (%) 1 μM” value (Table 1 (f1-f34), 1 µM) was 83%, the “ATX activity (%) 10 Mm” value (Table 1 (f1-f34)) was 82% and the “ATX activity (%) 100 μM” value (Table 1 (f1-f34), 100 µM) was 83%.
With `CCCCCCCCCCCCCCCC(=O)N[C@H](Cc1ccc(OCc2ccccc2)cc1)C(O)CP(=O)(O)O` (single isomer, unassigned) [f6] the “ATX activity (%) 1 μM” value (Table 1 (f1-f34), 1 µM) was 80%, the “ATX activity (%) 10 Mm” value (Table 1 (f1-f34)) was 81% and the “ATX activity (%) 100 μM” value (Table 1 (f1-f34), 100 µM) was 83%.
With `CCCCCCCCCCCCCCCC(=O)N[C@@H](Cc1ccc(OCc2ccccc2)cc1)C(O)CP(=O)(O)O` (single isomer, unassigned) [f7] the “ATX activity (%) 1 μM” value (Table 1 (f1-f34), 1 µM) was 97%, the “ATX activity (%) 10 Mm” value (Table 1 (f1-f34)) was 77% and the “ATX activity (%) 100 μM” value (Table 1 (f1-f34), 100 µM) was 68%.
`CCCCCCCCCCCCCCCC(=O)N[C@@H](Cc1ccc(OCc2ccccc2)cc1)C(O)CP(=O)(O)O` (single isomer, unassigned) [f8] was tested, and the “ATX activity (%) 1 μM” value (Table 1 (f1-f34), 1 µM) was 76%, the “ATX activity (%) 10 Mm” value (Table 1 (f1-f34)) was 83% and the “ATX activity (%) 100 μM” value (Table 1 (f1-f34), 100 µM) was 78%.
With `CCCCCCCCCCCCCCCC(=O)N[C@H](Cc1ccc(OCc2ccccc2)cc1)C(O)CP(=O)(O)O` (single isomer, unassigned) [f9] the “ATX activity (%) 1 μM” value (Table 1 (f1-f34), 1 µM) was 103%, the “ATX activity (%) 10 Mm” value (Table 1 (f1-f34)) was 76% and the “ATX activity (%) 100 μM” value (Table 1 (f1-f34), 100 µM) was 60%.
With `CCCCCCCCCCCCCCCC(=O)N[C@H](Cc1ccc(OCC2CCCCC2)cc1)C(O)CP(=O)(O)O` (single isomer, unassigned) [f13] the “ATX activity (%) 1 μM” value (Table 1 (f1-f34)) was 84%, the “ATX activity (%) 10 Mm” value (Table 1 (f1-f34)) was 80% and the “ATX activity (%) 100 μM” value (Table 1 (f1-f34)) was 67%.
In the case of `CCCCCCCCCCCCCCCC(=O)N[C@@H](Cc1ccc(OCC2CCCCC2)cc1)C(O)CP(=O)(O)O` (single isomer, unassigned) [f14], the “ATX activity (%) 1 μM” value (Table 1 (f1-f34)) is reported as 80%, the “ATX activity (%) 10 Mm” value (Table 1 (f1-f34)) is reported as 80% and the “ATX activity (%) 100 μM” value (Table 1 (f1-f34)) is reported as 80%.
In the case of `CCCCCCCCCCCCCCCC(=O)N[C@H](Cc1ccc(OCc2ncc(C)c(OC)c2C)cc1)C(O)CP(=O)(O)O` (single isomer, unassigned) [f15], the “ATX activity (%) 1 μM” value (Table 1 (f1-f34), 1 µM) is reported as 108%, the “ATX activity (%) 10 Mm” value (Table 1 (f1-f34)) is reported as 95% and the “ATX activity (%) 100 μM” value (Table 1 (f1-f34), 100 µM) is reported as 63%. The “ATX inhibition (in words)” value was “did potently inhibit ATX”.
`CCCCCCCCCCCCCCCC(=O)N[C@H](Cc1ccc(OCc2ncc(C)c(OC)c2C)cc1)C(O)CP(=O)(O)O` (single isomer, unassigned) [f16] was tested, and the “ATX activity (%) 1 μM” value (Table 1 (f1-f34), 1 µM) was 69%, the “ATX activity (%) 10 Mm” value (Table 1 (f1-f34)) was 64% and the “ATX activity (%) 100 μM” value (Table 1 (f1-f34), 100 µM) was 47%. The “ATX inhibition (in words)” value was “did potently inhibit ATX”.
In the case of `CCCCCCCCCCCCCCCC(=O)N[C@@H](Cc1ccc(OCc2ncc(C)c(OC)c2C)cc1)C(O)CP(=O)(O)O` (single isomer, unassigned) [f18], the “ATX activity (%) 1 μM” value (Table 1 (f1-f34)) is reported as 63%, the “ATX activity (%) 10 Mm” value (Table 1 (f1-f34)) is reported as 21% and the “ATX activity (%) 100 μM” value (Table 1 (f1-f34)) is reported as 8%. For the same molecule, the “inhibition of ATX (in words)” value (at 1 μM) was “significant inhibition”.
With `CCCCCCCCCCCCCCCC(=O)N[C@H](Cc1ccc(OC)cc1)C(O)CP(=O)(O)O` (single isomer, unassigned) [f19] the “ATX activity (%) 1 μM” value (Table 1 (f1-f34), 1 µM) was 100%, the “ATX activity (%) 10 Mm” value (Table 1 (f1-f34)) was 78% and the “ATX activity (%) 100 μM” value (Table 1 (f1-f34), 100 µM) was 57%.
`CCCCCCCCCCCCCCCC(=O)N[C@H](Cc1ccc(OC)cc1)C(O)CP(=O)(O)O` (single isomer, unassigned) [f20] was tested, and the “ATX activity (%) 1 μM” value (Table 1 (f1-f34), 1 µM) was 95%, the “ATX activity (%) 10 Mm” value (Table 1 (f1-f34)) was 84% and the “ATX activity (%) 100 μM” value (Table 1 (f1-f34), 100 µM) was 82%.
`CCCCCCCCCCCCCCCC(=O)N[C@@H](Cc1ccc(OC)cc1)C(O)CP(=O)(O)O` (single isomer, unassigned) [f21] was tested, and the “ATX activity (%) 1 μM” value (Table 1 (f1-f34), 1 µM) was 77%, the “ATX activity (%) 10 Mm” value (Table 1 (f1-f34)) was 56% and the “ATX activity (%) 100 μM” value (Table 1 (f1-f34), 100 µM) was 36%.
With `CCCCCCCCCCCCCCCC(=O)N[C@@H](Cc1ccc(OC)cc1)C(O)CP(=O)(O)O` (single isomer, unassigned) [f22] the “ATX activity (%) 1 μM” value (Table 1 (f1-f34), 1 µM) was 84%, the “ATX activity (%) 10 Mm” value (Table 1 (f1-f34)) was 80% and the “ATX activity (%) 100 μM” value (Table 1 (f1-f34), 100 µM) was 69%.
For `CCCCCCCCCCCCCCCC(=O)N[C@H](Cc1ccc(OCCC)cc1)C(O)CP(=O)(O)O` (single isomer, unassigned) [f23], the “ATX activity (%) 1 μM” value (Table 1 (f1-f34), 1 µM) was 80%, the “ATX activity (%) 10 Mm” value (Table 1 (f1-f34)) was 79% and the “ATX activity (%) 100 μM” value (Table 1 (f1-f34), 100 µM) was 72%.
`CCCCCCCCCCCCCCCC(=O)N[C@H](Cc1ccc(OCCC)cc1)C(O)CP(=O)(O)O` (single isomer, unassigned) [f24] was tested, and the “ATX activity (%) 1 μM” value (Table 1 (f1-f34), 1 µM) was 108%, the “ATX activity (%) 10 Mm” value (Table 1 (f1-f34)) was 108% and the “ATX activity (%) 100 μM” value (Table 1 (f1-f34), 100 µM) was 90%.
With `CCCCCCCCCCCCCCCC(=O)N[C@@H](Cc1ccc(OCCC)cc1)C(O)CP(=O)(O)O` (single isomer, unassigned) [f25] the “ATX activity (%) 1 μM” value (Table 1 (f1-f34), 1 µM) was 110%, the “ATX activity (%) 10 Mm” value (Table 1 (f1-f34)) was 97% and the “ATX activity (%) 100 μM” value (Table 1 (f1-f34), 100 µM) was 77%.
For `CCCCCCCCCCCCCCCC(=O)N[C@@H](Cc1ccc(OCCC)cc1)C(O)CP(=O)(O)O` (single isomer, unassigned) [f26], the “ATX activity (%) 1 μM” value (Table 1 (f1-f34), 1 µM) was 100%, the “ATX activity (%) 10 Mm” value (Table 1 (f1-f34)) was 100% and the “ATX activity (%) 100 μM” value (Table 1 (f1-f34), 100 µM) was 83%.
For `CCCCCCCCCCCCCCCC(=O)N[C@H](Cc1ccc(OCCCCC)cc1)C(O)CP(=O)(O)O` (single isomer, unassigned) [f27], the “ATX activity (%) 1 μM” value (Table 1 (f1-f34), 1 µM) was 81%, the “ATX activity (%) 10 Mm” value (Table 1 (f1-f34)) was 85% and the “ATX activity (%) 100 μM” value (Table 1 (f1-f34), 100 µM) was 80%.
With `CCCCCCCCCCCCCCCC(=O)N[C@H](Cc1ccc(OCCCCC)cc1)C(O)CP(=O)(O)O` (single isomer, unassigned) [f28] the “ATX activity (%) 1 μM” value (Table 1 (f1-f34), 1 µM) was 86%, the “ATX activity (%) 10 Mm” value (Table 1 (f1-f34)) was 82% and the “ATX activity (%) 100 μM” value (Table 1 (f1-f34), 100 µM) was 70%.
In the case of `CCCCCCCCCCCCCCCC(=O)N[C@@H](Cc1ccc(OCCCCC)cc1)C(O)CP(=O)(O)O` (single isomer, unassigned) [f29], the “ATX activity (%) 1 μM” value (Table 1 (f1-f34), 1 µM) is reported as 98%, the “ATX activity (%) 10 Mm” value (Table 1 (f1-f34)) is reported as 83% and the “ATX activity (%) 100 μM” value (Table 1 (f1-f34), 100 µM) is reported as 67%.
For `CCCCCCCCCCCCCCCC(=O)N[C@@H](Cc1ccc(OCCCCC)cc1)C(O)CP(=O)(O)O` (single isomer, unassigned) [f30], the “ATX activity (%) 1 μM” value (Table 1 (f1-f34), 1 µM) was 94%, the “ATX activity (%) 10 Mm” value (Table 1 (f1-f34)) was 90% and the “ATX activity (%) 100 μM” value (Table 1 (f1-f34), 100 µM) was 70%.
With `CCCCCCCCCC(=O)N[C@H](Cc1ccc(OCc2ncc(C)c(OC)c2C)cc1)C(O)CP(=O)(O)O` (single isomer, unassigned) [f35] the “ATX activity (%) 10 μM” value (Table 2 (f35-f44)) was 86% and the “ATX activity (%) 100 μM” value (Table 2 (f35-f44)) was 30%.
In the case of `CCCCCCCCCCCCCC(=O)N[C@H](Cc1ccc(OCc2ncc(C)c(OC)c2C)cc1)C(O)CP(=O)(O)O` (single isomer, unassigned) [f37], the “ATX activity (%) 10 μM” value (Table 2 (f35-f44)) is reported as 99% and the “ATX activity (%) 100 μM” value (Table 2 (f35-f44), 100 µM) is reported as 67%.
For `CCCCCCCCCCCCCC(=O)N[C@H](Cc1ccc(OCc2ncc(C)c(OC)c2C)cc1)C(O)CP(=O)(O)O` (single isomer, unassigned) [f38], the “ATX activity (%) 100 μM” value (Table 2 (f35-f44), 100 µM) was 35%.
With `CCCCCCCCCCCCCCCCCC(=O)N[C@@H](Cc1ccc(OCc2ncc(C)c(OC)c2C)cc1)C(O)CP(=O)(O)O` (single isomer, unassigned) [f39] the “ATX activity (%) 1 μM” value (Table 2 (f35-f44)) was 101%, the “ATX activity (%) 10 μM” value (Table 2 (f35-f44), 10 µM) was 91% and the “ATX activity (%) 100 μM” value (Table 2 (f35-f44), 100 µM) was 81%.
With `CCCCCCCCCCCCCCCCCC(=O)N[C@@H](Cc1ccc(OCc2ncc(C)c(OC)c2C)cc1)C(O)CP(=O)(O)O` (single isomer, unassigned) [f40] the “ATX activity (%) 10 μM” value (Table 2 (f35-f44), 10 µM) was 90% and the “ATX activity (%) 100 μM” value (Table 2 (f35-f44), 100 µM) was 62%.
For `CCCCCCCC/C=C\CCCCCCCC(=O)N[C@@H](Cc1ccc(OCc2ncc(C)c(OC)c2C)cc1)C(O)CP(=O)(O)O` (single isomer, unassigned) [f41], the “ATX activity (%) 10 μM” value (Table 2 (f35-f44), 10 µM) was 45% and the “ATX activity (%) 100 μM” value (Table 2 (f35-f44), 100 µM) was 15%.
For `CCCCCCCC/C=C\CCCCCCCC(=O)N[C@@H](Cc1ccc(OCc2ncc(C)c(OC)c2C)cc1)C(O)CP(=O)(O)O` (single isomer, unassigned) [f42], the “ATX activity (%) 1 μM” value (Table 2 (f35-f44)) was 77%, the “ATX activity (%) 10 μM” value (Table 2 (f35-f44), 10 µM) was 68% and the “ATX activity (%) 100 μM” value (Table 2 (f35-f44), 100 µM) was 58%.
